Results as given in patent US20090048258A1, “Amide Compound” (priority 2005, published 2009).
pIC50: −log10 of the molar value.

Key:
[1] = target: T1, Human DGAT1 (Homo sapiens, UniProt O75907); assay: DGAT inhibitory activity: [14C]-triglyceride synthesis by DGAT1 high expression Sf9 microsome; format: biochemical; details: Table 1, 25 μM dioleoylglycerol, 25 μM [14C]-Oleoyl-CoA, 32° C., 15 min, read-out: DGAT inhibitory activity (according to IC50)
T1 construct: my translation of the primer: M-G-DYKDDDD-GDRGSSRRR) (N); made in house; host or cells: Sf9 insect cells (recombinant baculovirus BAC-DGAT1, pFASTBAC1); microsome fraction
T1 sequence (O75907 1-488): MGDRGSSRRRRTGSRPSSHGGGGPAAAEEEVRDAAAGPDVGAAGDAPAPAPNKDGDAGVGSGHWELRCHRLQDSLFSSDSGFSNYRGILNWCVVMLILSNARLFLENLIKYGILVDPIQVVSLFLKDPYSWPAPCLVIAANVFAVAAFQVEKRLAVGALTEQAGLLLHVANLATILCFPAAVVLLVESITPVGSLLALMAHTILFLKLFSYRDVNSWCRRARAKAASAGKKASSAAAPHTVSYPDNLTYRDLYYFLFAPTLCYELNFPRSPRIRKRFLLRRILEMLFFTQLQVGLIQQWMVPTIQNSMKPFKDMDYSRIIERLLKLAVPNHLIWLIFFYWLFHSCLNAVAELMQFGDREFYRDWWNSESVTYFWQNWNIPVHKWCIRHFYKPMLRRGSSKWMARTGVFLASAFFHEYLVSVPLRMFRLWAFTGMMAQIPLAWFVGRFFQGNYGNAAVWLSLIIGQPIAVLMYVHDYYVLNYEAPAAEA
Summary of the method: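 DGAT1 was overexpressed from recombinant baculovirus in Sf9 cells, and microsomes from these cells were the enzyme source. Reactions ran in 100 mM Tris-HCl pH 7.5, 250 mM sucrose, 150 mM MgCl2 and 0.01% BSA. [14C]-triglyceride was extracted into chloroform, separated by TLC and quantified by imaging plate, with inhibition calculated against control and blank (no microsome) counts.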

CCOc1ccc(C(=O)CCC(=O)Nc2sc(-c3ccccc3)nc2-c2ccccc2)cc1OCC [Example 16, 4-(3,4-diethoxyphenyl)-N-(2,4-diphenyl-1,3-thiazol-5-yl)-4-oxobutanamide]
pIC50 [1]: 6.30 to 7.30
melting point: 139 to 140 °C
